Results: publication PMC3195894 (FEBS letters, 2011)

Experiments:
recombinant human RSK2 = recombinant human RSK2 (Homo sapiens, UniProt P51812); experiment: IMAP fluorescence polarization kinase inhibition assay, RSK2; type: biochemical; settings: read-out: IC50 RSK2; single assay; head-to-head testing, single batch of enzyme
recombinant human Chk1 = biological target: T1, recombinant human Chk1 (Homo sapiens, UniProt O14757); experiment: IMAP fluorescence polarization kinase inhibition assay, Chk1; type: biochemical; settings: read-out: IC50 Chk1; single assay; head-to-head testing, single batch of enzyme
T1 sequence (O14757 1-476): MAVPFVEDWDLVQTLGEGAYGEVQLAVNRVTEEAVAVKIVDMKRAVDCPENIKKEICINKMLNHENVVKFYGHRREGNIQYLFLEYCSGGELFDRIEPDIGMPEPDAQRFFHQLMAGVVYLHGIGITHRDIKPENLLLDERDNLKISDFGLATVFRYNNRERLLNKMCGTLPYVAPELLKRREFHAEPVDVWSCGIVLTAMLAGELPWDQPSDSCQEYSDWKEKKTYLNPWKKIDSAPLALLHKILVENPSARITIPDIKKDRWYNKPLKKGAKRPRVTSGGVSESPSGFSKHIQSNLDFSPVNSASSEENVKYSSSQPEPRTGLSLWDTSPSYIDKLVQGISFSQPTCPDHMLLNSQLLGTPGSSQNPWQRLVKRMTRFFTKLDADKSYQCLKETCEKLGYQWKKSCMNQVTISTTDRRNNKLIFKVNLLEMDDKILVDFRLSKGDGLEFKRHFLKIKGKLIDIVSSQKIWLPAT

recombinant human RSK2, sequence (P51812 whole entry): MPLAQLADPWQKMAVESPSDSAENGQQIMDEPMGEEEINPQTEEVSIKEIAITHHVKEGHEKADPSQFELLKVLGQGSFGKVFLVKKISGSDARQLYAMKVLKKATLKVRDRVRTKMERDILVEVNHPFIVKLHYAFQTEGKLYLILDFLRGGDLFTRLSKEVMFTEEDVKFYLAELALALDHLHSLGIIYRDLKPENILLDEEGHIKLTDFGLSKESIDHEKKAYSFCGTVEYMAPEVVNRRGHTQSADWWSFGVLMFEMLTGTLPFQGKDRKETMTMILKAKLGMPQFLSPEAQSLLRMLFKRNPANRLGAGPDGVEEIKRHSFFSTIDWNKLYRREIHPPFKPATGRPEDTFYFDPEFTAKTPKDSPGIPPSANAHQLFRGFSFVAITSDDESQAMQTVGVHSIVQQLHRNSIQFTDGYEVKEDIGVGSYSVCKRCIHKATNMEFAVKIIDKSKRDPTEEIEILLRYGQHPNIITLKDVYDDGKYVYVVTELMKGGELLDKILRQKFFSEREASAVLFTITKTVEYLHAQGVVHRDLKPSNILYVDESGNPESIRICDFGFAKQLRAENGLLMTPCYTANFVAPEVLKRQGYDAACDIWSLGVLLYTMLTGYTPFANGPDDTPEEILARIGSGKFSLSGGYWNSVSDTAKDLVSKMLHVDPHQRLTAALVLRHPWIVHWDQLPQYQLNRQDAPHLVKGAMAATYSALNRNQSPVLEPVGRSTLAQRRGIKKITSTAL

IC50 (recombinant human RSK2): 39 µM | IC50 (recombinant human Chk1): 8.1 µM
Compound: CC(=NNC(=N)N)c1ccc(NC(=O)c2cc3cccc([N+](=O)[O-])c3[nH]2)cc1 [PV1019, 7-nitro-1H-indole-2-carboxylic acid {4-[1-(guanidinohydrazone)-ethyl]-phenyl}-amide]
